What was measured:
Type in all cases: cell-based
[1] = test system: KU1919.1; test: Cell Titer Glo (CTG) proliferation assay, KU1919; conditions: Homo sapiens, KU-19-19; KU1919.1 cells, 72.0 hrs.; read-out: AVE CTG Proliferation KU1919.1 72.0 hrs.
How it was run: (§1)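 After overnight seeding at 37 °C, 5% CO2, cells were exposed to compound for 3 days. Viability read by CellTiter-Glo luminescence after 30 min at room temperature.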

[2] = test system: AKT; test: AKT ubiquitination assay (TUBE pulldown, western blot); conditions: KU-19-19 cells, 3 uM of compound, 6 hrs
Description: For each assay condition. 5.0×10^6 KU-19-19 cells were seeded in 10 cm dish grown in RPMI (Invitrogen. Carlsbad. CA. USA) supplemented with 10% fetal bovine serum. Cells were incubated overnight at 37° C. in a humidified atmosphere containing 5% CO2. […]. Next day, media was removed and cells were rinsed with 0.1% FBS cell culture media. Then 10 mL of 0.1% FBS+RPMI containing 3 uM of compound was added to each plate and treated with compound for 6 hrs. Cells were washed 3× with PBS and placed on ice. 900 μL of lysis buffer (50 mM Tris-HCl pH 7.4, 150 mM NaCl. 1% NP-40, 1% Sodium deoxycholate. 2 mM EDTA, 10% Glycerol, 5 mM Iodoacetamide (dissolved in ddH2O, MCE, Cat #HY-34477), 1×HALT protease\phosphatase inhibitor (Pierce. Cat #78440), 1×PMSF (Sigma. Cat #93482-50ML-F), 5 mM 1.10 Phenanthroline (in DMSO, MCE, Cat #HY—W004544), 25 uM MG-132 (in DMSO) (MCE. Cat #HY-13259), 50 μM PR-619 (make it in DMSO) (MCE. Cat #HY-13814) and 1× Benzonase (Sigma. Cat #E8263) was added and incubated on ice for 3-5 min and then scraped and collected. Lysates were incubated on ice for 1 hr and vortexed every 15 minutes before spinning down at 14 000 g for 10 minutes. Supernatants were collected and flash frozen in Liquid nitrogen for 10 minutes and stored at −80 C until further used. Adjust volume of samples with lysis buffer to obtain 1 mg in total volume of 1 mL. Perform TUBES pulldown following manufacturer's procedure using TUBE1 (high capacity magnetic beads) (Cat #UM-0501M-1000. LifeSensors). Briefly, wash 150 μl beads per sample with 12× beads volume of PBST (0.1% Tweed-20) three times. Add 1 mL of protein lysate to beads and incubate for 4 hours rotating at 4 C. Wash 4× with 10× beads volume of lysis buffer and rotate for 3 minutes, then collect beads with magnet for 3 minutes before collecting buffer. Wash 1× with 5× beads volumes of PBS-T. Wash TUBEs with 100 μl wash buffer for 5 minutes on thermomixer set at 1400 rpm and 25 C. TUBE washing buffer/TUBE Elution buffer/TUBE Neutralization buffer (Cat #UM411. LifeSensors) Elute with 18 μl of TUBE elution buffer for 15 minutes on thermomixer set at 1400 rpm at 25 C, and then collect eluate and add 2 μl of neutralization buffer. Load 18 μl of pulldown sample and 10 μg of input samples onto gel for western blot using standard methods with following antibodies: AKT (pan) (C67E7) (CST. Cat #4691S). β-Actin antibody (Cat #A1978, sigma) (Dilution. 1:2000) Anti-rabbit IgG. HRP-linked Antibody (CST. Cat #7074S) (Dilution, 1:2000)

[3] = test system: MDAMB468.1; test: Cell Titer Glo (CTG) proliferation assay, MDA-MB-468; conditions: Homo sapiens, MDA-MB-468; MDAMB468.1 cells, 72.0 hrs.; read-out: AVE CTG Proliferation MDAMB468.1 72.0 hrs.
How it was run: as §1

[4] = test system: MDAMB231.1; test: Cell Titer Glo (CTG) proliferation assay, MDA-MB-231; conditions: Homo sapiens, MDA-MB-231; MDAMB231.1 cells, 72 hrs.; read-out: AVE CTG Proliferation MDAMB231.1 72 hrs.
Description: Seed cells in 40 μL of cell culture media into each well of 384-well cell culture plate, spin them at room temperature at 1,000 RPM for 1 minute and then transfer the plates into 37° C. 5% CO2 incubator overnight. Next day, treat cells with 40 nL of diluted compound and return to incubator. After compound treatment for 3 days, Add 30 μL of CellTiter-Glo reagent (Promega) into each well to be detected. Then place the plates at room temperature for 30 min followed by reading on EnVision. Inhibition activity calculated as % DMSO=100×(LumSample-Lum low control)/(Lum high control-Lum low control) where high control is from cells treated with 0.1% DMSO and Low control obtained from PBS only. Use XLFit (equation 201) to calculate IC50 (A+ ((B−A)/(1[…]((x/C)^D)))) where A: Bottom, B: Top, C: IC50, D: Slope.

[5] = biological target: T1, AKT1 E17 (Homo sapiens, UniProt P31749, E17K); test: AKT plasma membrane translocation assay (AKT1 E17K-SmBiT / LCK1-LgBiT luminescence); conditions: KU-19-19 cells transfected with AKT1E17K-SmBIT and LCK1-LgBiT, read up to 1 hr
T1 construct: expressed in transfected cells; host or cells: KU-19-19
Description: AKT plasma membrane translocation assay
Seed 1.5×10^6 KU-19-19 cells in 10 cm dish. Transfect cells at 70% cell confluency with 5 ug AKTIE17K-SmBIT and 0.5 ug LCK1-LgBiT with Jet-Optimus transfection reagent. Incubate for 4-5 hours at 37c 5% CO2 TC incubator. Split and seed 10K cells in 40 ul media per well in 384 well plate and incubate over night at 37° C. CO2 free TC incubator. Add 10 ul of 5× Vivazine substrate (prepared in CO2 independent medium) to cells and shake palte to mix for 30 seconds. Read Luminescence for 100 minutes until signal is stable (1 read per minute). Add 50 nl/well of 3 uM compound stock to cells.

T1 sequence (P31749 whole entry E17K): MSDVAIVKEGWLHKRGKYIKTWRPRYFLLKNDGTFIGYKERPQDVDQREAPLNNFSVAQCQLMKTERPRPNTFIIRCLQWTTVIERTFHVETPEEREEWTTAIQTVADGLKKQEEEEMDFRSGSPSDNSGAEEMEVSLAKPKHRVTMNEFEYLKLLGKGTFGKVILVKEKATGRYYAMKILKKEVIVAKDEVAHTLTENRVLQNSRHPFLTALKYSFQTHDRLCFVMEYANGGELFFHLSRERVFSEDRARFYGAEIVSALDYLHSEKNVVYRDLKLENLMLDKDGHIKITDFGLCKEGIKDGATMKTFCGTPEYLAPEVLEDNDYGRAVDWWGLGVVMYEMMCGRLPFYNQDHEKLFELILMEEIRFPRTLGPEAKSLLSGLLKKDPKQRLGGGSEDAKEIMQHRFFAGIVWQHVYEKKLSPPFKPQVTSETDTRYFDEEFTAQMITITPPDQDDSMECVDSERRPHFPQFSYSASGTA

| Structure (SMILES) | IC50 [1] | Reduced AKT ubiquitination relative to PBM [2] | IC50 [3] | IC50 [4] | Reduced AKT1 E17 plasma membrane translocation relative to PBM [5] |
| --- | --- | --- | --- | --- | --- |
| NC1(C(=O)N[C@@H](CCN2CCN(C(=O)CN3CCC(OC4CCN(C(=O)[C@H](NC(=O)c5cccc(C6CN(C(=O)CNCc7ccc(F)cc7F)C6)c5)C5CCCCC5)CC4)CC3)CC2)c2ccc(Cl)cc2)CCN(c2ncnc3[nH]ccc23)CC1 [Compound I-242] | 500 to 1000 nM | Yes | 1000 to 5000 nM | 1000 to 5000 nM | Yes |
| NC1(C(=O)N[C@@H](CCN2CCN(C(=O)CN3CCC(OC4CCN(C(=O)[C@H](NC(=O)c5cccc(C6CCCN(C(=O)C7CC7)C6)c5)C5CCCCC5)CC4)CC3)CC2)c2ccc(Cl)cc2)CCN(c2ncnc3[nH]ccc23)CC1 (some centres unmarked) [Compound I-254] | 1000 to 5000 nM | Yes | 1000 to 5000 nM | 1000 to 5000 nM | Yes |
| CC(C)(C)OC(=O)N[C@@H](C(=O)N1CCC(OC2CCN(CC(=O)N3CCN(CC[C@H](NC(=O)C4(N)CCN(c5ncnc6[nH]ccc56)CC4)c4ccc(Cl)cc4)CC3)CC2)CC1)C1CCCCC1 [Compound I-312] | 1000 to 5000 nM | Yes | 1000 to 5000 nM | 1000 to 5000 nM | Yes |
| CCOc1cc(OC)ccc1CNCC(=O)N1CCCC(c2cccc(C(=O)N[C@@H](C(=O)N3CCN(CC4CCN(CC(=O)N5CCN(CC[C@H](NC(=O)C6(N)CCN(c7ncnc8[nH]ccc78)CC6)c6ccc(Cl)cc6)CC5)CC4)CC3)C3CCCCC3)c2)C1 (some centres unmarked) [Compound I-46] |  | Yes |  |  | Yes |

Source: patent publication US20250171465A1, “AKT INHIBITORS” (Stablix, Inc., priority 2023, published 2025)
